In ChEMBL document CHEMBL1201862, “PubChem BioAssay data set” (2004):
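These data come from cells grown in 96-well plates and exposed to compound for 48 hours at five concentrations. GI50 = concentration required for 50% inhibition of growth.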 The source made the active and inactive calls. Rule as the data show it: active = GI50 up to about 1.1 µM and inactive = higher.

Assays:
Assay in all cases: NCI-60 cell line screen, 48 h
[1] = tested on: 786-0
[2] = tested on: A498
[3] = tested on: A549
[4] = tested on: ACHN
[5] = tested on: BT-549
[6] = tested on: CAKI-1
[7] = tested on: CCRF-CEM
[8] = tested on: COLO 205
[9] = tested on: DU-145
[10] = tested on: EKVX
[11] = tested on: HCC 2998
[12] = tested on: HCT-116
[13] = tested on: HCT-15
[14] = tested on: HL-60
[15] = tested on: HOP-62
[16] = tested on: HOP-92
[17] = tested on: HT-29
[18] = tested on: Hs-578T
[19] = tested on: IGROV-1
[20] = tested on: K562
[21] = tested on: KM12
[22] = tested on: LOX IMVI
[23] = tested on: M14
[24] = tested on: MCF7
[25] = tested on: MDA-MB-231
[26] = tested on: MDA-MB-435
[27] = tested on: MDA-N
[28] = tested on: MOLT-4
[29] = tested on: Malme-3M
[30] = tested on: NCI-H226
[31] = tested on: NCI-H23
[32] = tested on: NCI-H460
[33] = tested on: NCI-H522
[34] = tested on: NCI/ADR-RES
[35] = tested on: OVCAR-3
[36] = tested on: OVCAR-4
[37] = tested on: OVCAR-5
[38] = tested on: OVCAR-8
[39] = tested on: PC-3
[40] = tested on: RPMI-8226
[41] = tested on: RXF 393
[42] = tested on: SF-268
[43] = tested on: SF-295
[44] = tested on: SF-539
[45] = tested on: SK-MEL-28
[46] = tested on: SK-MEL-2
[47] = tested on: SK-MEL-5
[48] = tested on: SK-OV-3
[49] = tested on: SN12C
[50] = tested on: SNB-19
[51] = tested on: SNB-75
[52] = tested on: SR
[53] = tested on: SW-620
[54] = tested on: T47D
[55] = tested on: TK-10
[56] = tested on: U-251
[57] = tested on: UACC-257
[58] = tested on: UACC-62
[59] = tested on: UO-31

## CC(C)C[S+]1C2=C(CC(C)(C)CC2=O)[N-]c2ccccc21 (centres undefined)
[1]
  GI50: > 100 µM (inactive)
[2]
  GI50: > 100 µM (inactive)
[3]
  GI50: > 100 µM (inactive)
[4]
  GI50: > 100 µM (inactive)
[5]
  GI50: > 100 µM (inactive)
[6]
  GI50: > 100 µM (inactive)
[7]
  GI50: > 100 µM (inactive)
[8]
  GI50: > 100 µM (inactive)
[9]
  GI50: > 100 µM (inactive)
[10]
  GI50: > 100 µM (inactive)
[11]
  GI50: > 100 µM (inactive)
[12]
  GI50: > 100 µM (inactive)
[13]
  GI50: > 100 µM
[14]
  GI50: > 100 µM (inactive)
[15]
  GI50: > 100 µM (inactive)
[16]
  GI50: > 100 µM (inactive)
[17]
  GI50: > 100 µM (inactive)
[18]
  GI50: > 100 µM (inactive)
[19]
  GI50: > 100 µM (inactive)
[20]
  GI50: 71.9 µM (inactive)
[21]
  GI50: > 100 µM (inactive)
[22]
  GI50: > 100 µM (inactive)
[23]
  GI50: > 100 µM (inactive)
[24]
  GI50: > 100 µM (inactive)
[25]
  GI50: > 100 µM (inactive)
[26]
  GI50: > 100 µM (inactive)
[27]
  GI50: > 100 µM (inactive)
[28]
  GI50: 67.8 µM (inactive)
[29]
  GI50: > 100 µM (inactive)
[30]
  GI50: > 100 µM (inactive)
[31]
  GI50: > 100 µM (inactive)
[32]
  GI50: > 100 µM (inactive)
[33]
  GI50: > 100 µM (inactive)
[34]
  GI50: > 100 µM (inactive)
[35]
  GI50: > 100 µM (inactive)
[36]
  GI50: > 100 µM (inactive)
[37]
  GI50: > 100 µM (inactive)
[38]
  GI50: > 100 µM (inactive)
[39]
  GI50: > 100 µM (inactive)
[40]
  GI50: > 100 µM (inactive)
[41]
  GI50: > 100 µM (inactive)
[42]
  GI50: > 100 µM (inactive)
[43]
  GI50: > 100 µM (inactive)
[44]
  GI50: > 100 µM (inactive)
[45]
  GI50: > 100 µM (inactive)
[46]
  GI50: > 100 µM (inactive)
[47]
  GI50: > 100 µM (inactive)
[48]
  GI50: > 100 µM (inactive)
[49]
  GI50: > 100 µM (inactive)
[50]
  GI50: > 100 µM (inactive)
[51]
  GI50: > 100 µM (inactive)
[52]
  GI50: 11.3 µM (inactive)
[53]
  GI50: > 100 µM (inactive)
[54]
  GI50: > 100 µM (inactive)
[55]
  GI50: > 100 µM (inactive)
[56]
  GI50: > 100 µM (inactive)
[57]
  GI50: > 100 µM (inactive)
[58]
  GI50: > 100 µM (inactive)
[59]
  GI50: > 100 µM (inactive)
